# Key:
# caspase-7 = target: T1, caspase-7 (Homo sapiens, UniProt P55210); test: Inhibition of purified recombinant caspase-7, DEVD substrate hydrolysis and progress curves; type: biochemical
# T1 construct: Purified active caspase concentrations ranged from 0.1 nM to 10 nM; His6; made in house; host or cells: E. coli BL21(DE3)pLysS
# T1 sequence (P55210 24-198 limits assumed): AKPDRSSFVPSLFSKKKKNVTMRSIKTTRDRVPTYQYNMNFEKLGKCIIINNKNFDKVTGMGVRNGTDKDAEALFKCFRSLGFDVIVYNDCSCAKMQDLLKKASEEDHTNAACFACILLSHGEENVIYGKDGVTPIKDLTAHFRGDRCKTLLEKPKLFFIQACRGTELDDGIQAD
# T1 sequence (P55210 207-303 limits assumed): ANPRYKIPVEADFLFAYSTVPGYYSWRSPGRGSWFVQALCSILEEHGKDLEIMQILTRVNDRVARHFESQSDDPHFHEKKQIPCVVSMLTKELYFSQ
# 293T cells [1] = test: Bax-induced apoptosis and caspase activation in transfected 293T cells; type: cell-based, human
# Procedure: N-benzyloxycarbonyl-Val-Ala-Asp fluoromethylketone (zVAD-fmk; 50 μM) (Bachem Calif.; Torrance, Calif.) was added immediately after transfection of the Bax plasmid. Transfection efficiency was uniformly 80–90%, as determined by X-Gal staining following cotransfection with pCMV-βGal.
# Cells were maintained in culture for 24 hr, then floating and attached cells were harvested and an aliquot was removed and the percent of dead cells was determined by either trypan blue or propidium iodide (PI) dye exclusion assay. A second aliquot was used to assess the percentage of apoptotic cells with subdiploid DNA content by FACS analysis of PI stained, ethanol fixed cells. The remaining cell pellets were lysed in 10 mM HEPES (pH 7.5), 142 mM KCl, 1 mM EGTA, 1 mM DTT, 0.2% NP-40, 0.1 mM PMSF and used for immunoblot analysis or for protease assays.
# pro-caspase-9 [2] = test: Cytochrome c-induced processing of pro-caspase-9 in 293 cytosolic extracts; type: biochemical, human; settings: for cytochrome c-induced pro-caspase-9 processing (in words): 0.2 μM GST-IAP, 30 min at 30° C.
# Procedure: Cytochrome c induced processing of pro-caspase-9 was subsequently monitored by SDS-PAGE and autoradiography.
# Pro-caspase-9 inhibition by Ac-DEVD-fmk, zVAD-fmk and XIAP was compared as follows. In vitro translated ^35S-labeled pro-caspase-9 was added to cytosolic extracts from 293 cells containing 10 μM cytochrome c and 1 mM dATP. Samples were incubated at 30° C. for 30 minutes in the presence of the indicated concentrations of inhibitors. Proteins were separated on SDS-PAGE gels, dried directly, and exposed to film.
# 293T cells [3] = test: Caspase-9-induced pro-caspase-3 processing and apoptosis in transfected 293T cells; type: cell-based, human; settings: co-transfection with FLAG-caspase-9; for number of apoptotic 293T cells (in words): DAPI staining
# Procedure: (§1) Co-immunoprecipitations and immunoblot assays were performed as follows. […] Cells were collected 24–48 hrs later by centrifugation, washed in ice cold PBS and lysed for 20 minutes in lysis buffer (10 mM Hepes, 142 mM KCl, 5 mM MgCl2, 1 mM EGTA, 0.2% NP-40). Lysates were cleared by centrifugation at 16,000×g for 30 minutes. Myc-tagged IAP proteins were immunoprecipitated with 40 μl of anti-myc 9E10 antibody immobilized on Protein G-Sepharose (Santa Cruz) for 2 hrs. Immunoprecipitates were washed 3 times with lysis buffer, and bound proteins separated by SDS-PAGE and analyzed by immunoblotting using antibodies specific for the FLAG epitope (Kodak, Inc.), myc-epitope, or caspase-3.
# Cell lysates were prepared 16 hr later for either (A) immunoblot analysis of caspase-3, or (B) DEVD-AFC. Immunoblot analysis of pro-caspase-3 was performed with lysates from cells induced to undergo apoptosis by overexpressing pro-caspase-9 in the absence or presence of the IAPs. For DEVD-AFC analysis, lysates were normalized for total protein content and assayed for hydrolysis of DEVD-AFC as described above. […] In panel D, IAP proteins were immunoprecipitated with anti-myc antibody immobilized on protein G-Sepharose at ˜16 hours post-transfection. Immunoblot analysis with anti-FLAG antibody was employed for detection of pro-caspase-9 in the resulting immune complexes. Lysates from the same cell (50 μg per lane) were also analyzed by immunoblotting using anti-FLAG and anti-myc antibodies to verify expression of […].
# caspase-3 = target: T2, caspase-3 (Homo sapiens, UniProt P42574); test: GST pull-down binding to caspase-3; settings: glutathione-Sepharose beads, immunoblot
# T2 construct: to produce the 17–20 kDa mature, fully processed large subunit of the active caspase-3 enzyme; a smaller, fully processed, subunit of about 11 kDa; His6; made in house; host or cells: E. coli BL21(DE3)pLysS
# T2 sequence (P42574 29-175 limits assumed): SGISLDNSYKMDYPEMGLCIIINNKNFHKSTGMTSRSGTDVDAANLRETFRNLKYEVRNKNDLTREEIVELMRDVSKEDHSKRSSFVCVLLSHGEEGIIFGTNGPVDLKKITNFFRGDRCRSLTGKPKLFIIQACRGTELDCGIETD
# T2 sequence (P42574 176-277 limits assumed): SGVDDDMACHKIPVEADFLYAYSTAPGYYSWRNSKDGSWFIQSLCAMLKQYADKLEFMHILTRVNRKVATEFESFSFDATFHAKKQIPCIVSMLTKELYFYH
# Procedure: Following incubation at 4° C. for 60 min, the beads were removed by centrifugation and washed twice with 100 vol 50 mM Tris (pH 7.5), 150 mM KCl, 2 mM DTT and 0.025% Triton-X100, then subjected to SDS-PAGE and immunoblot assay (see Example I.B.3).
# pro-caspase-9 [4] = test: Co-immunoprecipitation of pro-caspase-9 with myc-tagged IAPs in 293T cells; type: binding, human; settings: anti-myc immunoprecipitation, anti-FLAG blot
# Procedure: as §1
# Cell lysates were prepared 16 hr later for either (A) immunoblot analysis of caspase-3, or (B) DEVD-AFC. Immunoblot analysis of pro-caspase-3 was performed with lysates from cells induced to undergo apoptosis by overexpressing pro-caspase-9 in the absence or presence of the IAPs. For DEVD-AFC analysis, lysates were normalized for total protein content and assayed for hydrolysis of DEVD-AFC as described above. […] Lysates from the same cell (50 μg per lane) were also analyzed by immunoblotting using anti-FLAG and anti-myc antibodies to verify expression of […].
inhibition of processing of DEVD-pNA by caspase-7 (caspase-7; 10-fold molar excess),"average ratio velocity (vi/vo), caspase-7 (caspase-7; DEVD-AFC hydrolysis with/without GST-XIAP)","Ki (caspase-7; progress curve analysis, DEVD-AFC 0.1 mM, 0.1 nM caspase, read-out: inhibition constant (Ki) for caspase-7) [nM]","concentration to completely abolish cytochrome c-mediated processing of pro-caspase-9 (pro-caspase-9 [2]; 10 μM cytochrome c, 1 mM dATP, 30° C., 30 min)",binding of caspase-3 (in words) (caspase-3),Substance,"apoptotic cells (PI staining) in Bax expressing cells (293T cells [1]; 24 hr, Bax alone about 25%, zVAD-fmk 50 μM)",Bax-induced generation of caspase activity and pro-caspase-3 processing (in words) (293T cells [1]; DEVD-AFC hydrolysis and immunoblot of cell extracts),"apoptotic cells (PI staining) (293T cells [1]; XIAP expressed without Bax, control plasmid about 2%)",potency relative to baculovirus p35 protein at inhibiting cytochrome c-induced processing of pro-caspase-9 (pro-caspase-9 [2]),cytochrome c-induced pro-caspase-9 processing (in words) (pro-caspase-9 [2]),caspase-9-induced cleavage of pro-caspase-3 and Ac-DEVD-AFC cleavage activity (in words) (293T cells [3]),number of apoptotic 293T cells (in words) (293T cells [3]),co-immunoprecipitation of the zymogen form of caspase-9 (in words) (pro-caspase-9 [4])
greater than 95%,less than 0.2,~0.2,less than 0.2 μM,Specific binding,"XIAP: X chromosome linked inhibitor of apoptosis protein (Genbank U32974), used mostly as recombinant GST fusion or expressed from plasmid",less than 10%,markedly inhibited,about 5%,about 5 fold,nearly completely abolished,markedly reduced,a reduction in the number of apoptotic 293T cells,co-immunoprecipitated
–,–,–,–,bound,"c-IAP-2: cellular IAP protein c-IAP-2/HIAP-1/hMIHC, recombinant GST fusion or myc-tagged",–,–,–,–,"inhibited pro-caspase-9 processing, albeit to a lesser extent",markedly reduced,a reduction in the number of apoptotic 293T cells,co-immunoprecipitated

# Source: patent US7192728B2, “Screening assays for agents that alter inhibitor of apoptosis (IAP) protein regulation of caspase activity” (The Burnham Institute, priority 1997, dated 2007)
